From ChEMBL document CHEMBL3044652, “Synthesis of novel 2-alkyl-4-substituted-amino-pyrazolo[3,4-d]pyrimidines as new leads for anti-bacterial and anti-cancer activity” (2013)

Experiments:
Format in all cases: functional
Escherichia coli = experiment: Antibacterial activity against Escherichia coli NCIM 2803 at 20 ug/ml after 24 hr by agar diffusion method; conditions: NCIM 2803, 24 h, read-out: IZ
Bacillus subtilis = experiment: Antibacterial activity against Bacillus subtilis NCIM 2545 at 20 ug/ml after 24 hr by agar diffusion method; conditions: NCIM 2545, 24 h, read-out: IZ
Staphylococcus aureus = experiment: Antibacterial activity against Staphylococcus aureus NCIM 5021 at 20 ug/ml after 24 hr by agar diffusion method; conditions: NCIM 5021, 24 h, read-out: IZ
[1] = system: Staphylococcus epidermidis; experiment: Antibacterial activity against Staphylococcus epidermidis NCIM 2493 at 20 ug/ml after 24 hr by agar diffusion method; conditions: NCIM 2493, 24 h, read-out: IZ
G-361 [2] = experiment: Cytotoxicity against Homo sapiens (human) G361 cells assessed as cell growth at 10^-7 M by SRB assay relative to control; conditions: read-out: Activity
G-361 [3] = experiment: Cytotoxicity against Homo sapiens (human) G361 cells assessed as cell growth at 10^-6 M by SRB assay relative to control; conditions: read-out: Activity
G-361 [4] = experiment: Cytotoxicity against Homo sapiens (human) G361 cells assessed as cell growth at 10^-5 M by SRB assay relative to control; conditions: read-out: Activity
G-361 [5] = experiment: Cytotoxicity against Homo sapiens (human) G361 cells assessed as cell growth at 10^-4 M by SRB assay relative to control; conditions: read-out: Activity
G-361 [6] = experiment: Cytotoxicity against Homo sapiens (human) G361 cells by SRB assay

SMILES | zone of inhibition at 20 µg/mL (Escherichia coli) | zone of inhibition at 20 µg/mL (Bacillus subtilis) | zone of inhibition at 20 µg/mL (Staphylococcus aureus) | zone of inhibition at 20 µg/mL [1] | growth at 0.1 µM (G-361 [2]) | growth at 1 µM (G-361 [3]) | growth at 10 µM (G-361 [4]) | growth at 100 µM (G-361 [5]) | GI50 (G-361 [6]) | LC50 (G-361 [6]) | TGI (G-361 [6])
CC(C)Nc1ncnc2c1cnn2-c1ccccc1 | 13.3 mm | 13.3 mm | 13.6 mm | 13.6 mm | – | – | – | – | – | – | –
ClCc1nc(Cl)c2cnn(-c3ccccc3)c2n1 | – | – | – | – | 100% | 100% | 90.9% | -59.3% | 2.08 µM | > 100 µM | 33.2 µM
CCc1nc(NC(C)C)c2cnn(-c3ccccc3)c2n1 | 13.3 mm | 13.3 mm | 13.6 mm | 13.6 mm | 100% | 96.4% | 83.3% | 40% | 38 µM | > 100 µM | > 100 µM
CCCCNc1nc(CC)nc2c1cnn2-c1ccccc1 | 12.7 mm | 12.8 mm | 13.3 mm | 13 mm | 100% | 96.5% | 84.8% | -62.5% | 2.02 µM | > 100 µM | 32 µM
CCc1nc(NCc2ccco2)c2cnn(-c3ccccc3)c2n1 | 12.7 mm | 13.6 mm | 13.3 mm | 13.6 mm | 100% | 96.5% | 86.3% | -61% | 2.04 µM | > 100 µM | 32 µM
CCc1nc(N2CCOCC2)c2cnn(-c3ccccc3)c2n1 | 13 mm | 13.3 mm | 13 mm | 13 mm | 100% | 85.5% | 65.9% | 30.9% | 28 µM | > 100 µM | > 100 µM
CCc1nc(Nc2ccccc2)c2cnn(-c3ccccc3)c2n1 | 13.3 mm | 13.3 mm | 13.6 mm | 13.6 mm | – | – | – | – | – | – | –
CC(C)c1nc(Nc2ccccc2)c2cnn(-c3ccccc3)c2n1 | 12.8 mm | 13.5 mm | 13.3 mm | 13.3 mm | 100% | 100% | 91.9% | 19.2% | 32 µM | > 100 µM | > 100 µM
CCCNCc1nc(NCCC)c2cnn(-c3ccccc3)c2n1 | 13.3 mm | 13.6 mm | 13.3 mm | 13.3 mm | 100% | 99.6% | 100% | 75.1% | > 100 µM | – | > 100 µM
CC(C)NCc1nc(NC(C)C)c2cnn(-c3ccccc3)c2n1 | 13 mm | 13.6 mm | 1.3 mm | 1.33 mm | 100% | 100% | 99.7% | 56.5% | > 100 µM | > 100 µM | > 100 µM
CCNCc1nc(NCC)c2cnn(-c3ccccc3)c2n1 | 13.3 mm | 12.7 mm | 12.6 mm | 13.6 mm | 100% | 100% | 100% | 87.7% | > 100 µM | > 100 µM | > 100 µM
c1ccc(-n2ncc3c(N4CCOCC4)nc(CN4CCOCC4)nc32)cc1 | 13.6 mm | 13 mm | 13.6 mm | 13.3 mm | 99.7% | 99.6% | 94.3% | 47.6% | > 100 µM | > 100 µM | > 100 µM
c1ccc(NCc2nc(Nc3ccccc3)c3cnn(-c4ccccc4)c3n2)cc1 | 13.3 mm | 13.6 mm | 13.2 mm | 13 mm | 100% | 100% | 99.7% | 48.5% | > 100 µM | > 100 µM | > 100 µM
Cc1nc(Nc2ccccc2)c2cnn(-c3ccccc3)c2n1 | 13.3 mm | 13.6 mm | 13.4 mm | 13.6 mm | 100% | 100% | 100% | 65.6% | > 100 µM | > 100 µM | > 100 µM
CCN(CC)c1nc(C)nc2c1cnn2-c1ccccc1 | 13.6 mm | 13.1 mm | 13.7 mm | 13.3 mm | 100% | 100% | 100% | 61.8% | > 100 µM | > 100 µM | > 100 µM
Cc1nc(NCc2ccccc2)c2cnn(-c3ccccc3)c2n1 | 12.6 mm | 13.3 mm | 13.1 mm | 12.7 mm | 100% | 100% | 100% | 45.5% | > 100 µM | > 100 µM | > 100 µM
CCNc1nc(C)nc2c1cnn2-c1ccccc1 | 13.4 mm | 13.3 mm | 13.3 mm | 13.3 mm | 100% | 100% | 99.6% | 29.2% | 38.7 µM | > 100 µM | > 100 µM
COc1ccccc1Nc1nc(C)nc2c1cnn2-c1ccccc1 | 13.5 mm | 13.4 mm | 13.3 mm | 13.6 mm | – | – | – | – | – | – | –
CCCNc1nc(CC)nc2c1cnn2-c1ccccc1 | 13.6 mm | 13 mm | 13.3 mm | 13.3 mm | 100% | 94.7% | 84.7% | -34.7% | 2.2 µM | > 100 µM | 37 µM
COc1cccc2c1C(=O)c1c(O)c3c(c(O)c1C2=O)C[C@@](O)(C(=O)CO)C[C@@H]3O[C@H]1C[C@H](N)[C@H](O)[C@H](C)O1 [DOXORUBICIN] | – | – | – | – | -24% | -62.5% | -64.2% | -70.7% | < 0.1 µM | – | < 0.1 µM
